Reference: patent US20260285850A1, “SUBSTITUTED OXAZOLIDINONES AND IMIDAZOLINONES AS HERBICIDES” (FMC CORPORATION, priority 2023, published 2026)

What was measured:
Assay type in all cases: in vivo
[1] = test system: barnyardgrass (Echinochloa crus-galli); experiment: Test A preemergence soil spray, visual injury rating 0-100; settings: 10 days, 0 = no effect, 100 = complete control
Summary of the method: (§1)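 Plants were grown in a loam soil-sand blend and treated with test chemical in a non-phytotoxic solvent mixture containing surfactant, either sprayed on soil preemergence or applied postemergence to 2-10 cm plants. After 10 days in a greenhouse, injury was scored visually against untreated controls, 0 meaning no effect and 100 complete control.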

[2] = test system: blackgrass (Alopecurus myosuroides); experiment: as above; settings: 10 days, 0 = no effect, 100 = complete control
Summary of the method: as §1

corn (Zea mays) [3] = experiment: as above; settings: 10 days, 0 = no effect, 100 = complete control
Summary of the method: as §1

[4] = test system: green foxtail (Setaria viridis); experiment: as above; settings: 10 days, 0 = no effect, 100 = complete control
Summary of the method: as §1

kochia (Bassia scoparia) [5] = experiment: as above; settings: 10 days, 0 = no effect, 100 = complete control
Summary of the method: as §1

[6] = test system: oat, wild (wild oat, Avena fatua); experiment: as above; settings: 10 days, 0 = no effect, 100 = complete control
Summary of the method: as §1

[7] = test system: palmer (palmer amaranth, palmer pigweed, Amaranthus palmeri); experiment: as above; settings: 10 days, 0 = no effect, 100 = complete control
Summary of the method: as §1

[8] = test system: ragweed (common ragweed, Ambrosia artemisiifolia); experiment: as above; settings: 10 days, 0 = no effect, 100 = complete control
Summary of the method: as §1

[9] = test system: ryegrass, Italian (italian ryegrass, Lolium multiflorum); experiment: as above; settings: 10 days, 0 = no effect, 100 = complete control
Summary of the method: as §1

soybean (Glycine max) [10] = experiment: as above; settings: 10 days, 0 = no effect, 100 = complete control
Summary of the method: as §1

[11] = test system: wheat (Triticum aestivum); experiment: as above; settings: 10 days, 0 = no effect, 100 = complete control
Summary of the method: as §1

[12] = test system: barnyardgrass (Echinochloa crus-galli); experiment: Test A postemergence application, visual injury rating 0-100; settings: 10 days
Summary of the method: as §1

[13] = test system: blackgrass (Alopecurus myosuroides); experiment: as above; settings: 10 days
Summary of the method: as §1

corn (Zea mays) [14] = experiment: as above; settings: 10 days
Summary of the method: as §1

[15] = test system: galium (catchweed bedstraw, Galium aparine); experiment: as above; settings: 10 days
Summary of the method: as §1

[16] = test system: green foxtail (Setaria viridis); experiment: as above; settings: 10 days
Summary of the method: as §1

[17] = test system: horseweed (Erigeron canadensis); experiment: as above; settings: 10 days
Summary of the method: as §1

kochia (Bassia scoparia) [18] = experiment: as above; settings: 10 days
Summary of the method: as §1

[19] = test system: oat, wild (wild oat, Avena fatua); experiment: as above; settings: 10 days
Summary of the method: as §1

[20] = test system: palmer (palmer amaranth, palmer pigweed, Amaranthus palmeri); experiment: as above; settings: 10 days
Summary of the method: as §1

[21] = test system: ragweed (common ragweed, Ambrosia artemisiifolia); experiment: as above; settings: 10 days
Summary of the method: as §1

[22] = test system: ryegrass, Italian (italian ryegrass, Lolium multiflorum); experiment: as above; settings: 10 days
Summary of the method: as §1

soybean (Glycine max) [23] = experiment: as above; settings: 10 days
Summary of the method: as §1

[24] = test system: wheat (Triticum aestivum); experiment: as above; settings: 10 days
Summary of the method: as §1

[25] = test system: barnyardgrass (Echinochloa crusgalli); experiment: Test B flooded paddy test, visual plant response rating 0-100; settings: 250 g ai/ha, Flood, applied to paddy water, evaluated after 13 days
Summary of the method: (§2)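 2-leaf plants; flood 3 cm over soil; compound dosed into paddy water; depth kept constant; greenhouse 13 d; visual scoring vs controls. Dash = no result.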

[26] = test system: ducksalad (Heteranthera limosa); experiment: as above; settings: 250 g ai/ha, Flood, applied to paddy water, evaluated after 13 days
Summary of the method: as §2

rice (Oryza sativa) = experiment: as above; settings: 250 g ai/ha, Flood, applied to paddy water, evaluated after 13 days
Summary of the method: as §2

[27] = test system: sedge, umbrella (small-flower umbrella sedge, Cyperus difformis); experiment: as above; settings: 250 g ai/ha, Flood, applied to paddy water, evaluated after 13 days
Summary of the method: as §2

[28] = 31 g ai/ha, postemergence, 0 = no effect, 100 = complete control
[29] = Postemergence, 125 g ai/ha, 0 is no effect, 100 is complete control

## CC(C)COC(=O)C1=CCC(NC(=O)C2(C)CN(c3cc(F)cc(F)c3)C(=O)O2)C1 (stereo not shown) [Compound 16]
[1]; 31 g ai/ha
  Barnyardgrass plant response rating (0-100): 0
[1]; 125 g ai/ha
  Barnyardgrass plant response rating (0 to 100 scale): 90
[2]; 31 g ai/ha
  Blackgrass plant response rating (0-100): 0
[2]; 125 g ai/ha
  Blackgrass plant response rating (0 to 100 scale): 40
Corn (Zea mays) [3]; 31 g ai/ha
  Corn plant response rating (0-100): 20
Corn (Zea mays) [3]; 125 g ai/ha
  Corn plant response rating (0 to 100 scale): 70
[4]; 31 g ai/ha
  Foxtail, Green plant response rating (0-100): 0
[4]; 125 g ai/ha
  Foxtail, Green plant response rating (0 to 100 scale): 100
Kochia (Bassia scoparia) [5]; 31 g ai/ha
  Kochia plant response rating (0-100): 0
Kochia (Bassia scoparia) [5]; 125 g ai/ha
  Kochia plant response rating (0 to 100 scale): 40
[6]; 31 g ai/ha
  Oat, Wild plant response rating (0-100): 0
[6]; 125 g ai/ha
  Oat, Wild plant response rating (0 to 100 scale): 50
[7]; 31 g ai/ha
  Amaranth, Palmer plant response rating (0-100): 0
[7]; 125 g ai/ha
  Amaranth, Palmer plant response rating (0 to 100 scale): 80
[8]; 31 g ai/ha
  Ragweed plant response rating (0-100): 0
[8]; 125 g ai/ha
  Ragweed plant response rating (0 to 100 scale): 20
[9]; 31 g ai/ha
  Ryegrass, Italian plant response rating (0-100): 40
[9]; 125 g ai/ha
  Ryegrass, Italian plant response rating (0 to 100 scale): 90
Soybean (Glycine max) [10]; 31 g ai/ha
  Soybean plant response rating (0-100): 0
Soybean (Glycine max) [10]; 125 g ai/ha
  Soybean plant response rating (0 to 100 scale): 0
[11]; 31 g ai/ha
  Wheat plant response rating (0-100): 50
[11]; 125 g ai/ha
  Wheat plant response rating (0 to 100 scale): 80
[12]; [28]
  Barnyardgrass plant response rating (0-100): 100
[12]; [29]
  Barnyardgrass plant response rating (0 to 100 scale): 100
[13]; [28]
  Blackgrass plant response rating (0-100): 90
[13]; [29]
  Blackgrass plant response rating (0 to 100 scale): 100
Corn (Zea mays) [14]; [28]
  Corn plant response rating (0-100): 90
Corn (Zea mays) [14]; [29]
  Corn plant response rating (0 to 100 scale): 100
[15]; [28]
  Galium plant response rating (0-100): 90
[15]; [29]
  Galium plant response rating (0 to 100 scale): 90
[16]; [28]
  Foxtail, Green plant response rating (0-100): 90
[16]; [29]
  Foxtail, Green plant response rating (0 to 100 scale): 90
[17]; [28]
  Horseweed plant response rating (0-100): 0
[17]; [29]
  Horseweed plant response rating (0 to 100 scale): 20
Kochia (Bassia scoparia) [18]; [28]
  Kochia plant response rating (0-100): 70
Kochia (Bassia scoparia) [18]; [29]
  Kochia plant response rating (0 to 100 scale): 70
[19]; [28]
  Oat, Wild plant response rating (0-100): 60
[19]; [29]
  Oat, Wild plant response rating (0 to 100 scale): 90
[20]; [28]
  Amaranth, Palmer plant response rating (0-100): 20
[20]; [29]
  Amaranth, Palmer / Pigweed, Palmer plant response rating (0 to 100 scale): 70
[21]; [28]
  Ragweed plant response rating (0-100): 40
[21]; [29]
  Ragweed plant response rating (0 to 100 scale): 50
[22]; [28]
  Ryegrass, Italian plant response rating (0-100): 70
[22]; [29]
  Ryegrass, Italian plant response rating (0 to 100 scale): 90
Soybean (Glycine max) [23]; [28]
  Soybean plant response rating (0-100): 60
Soybean (Glycine max) [23]; [29]
  Soybean plant response rating (0 to 100 scale): 60
[24]; [28]
  Wheat plant response rating (0-100): 80
[24]; [29]
  Wheat plant response rating (0 to 100 scale): 90
[25]
  Plant response rating, Barnyardgrass (0 to 100 scale, 0 is no effect and 100 is complete control): 65
[26]
  Plant response rating, Ducksalad (0 to 100 scale, 0 is no effect and 100 is complete control): 70
Rice (Oryza sativa)
  Plant response rating, Rice (0 to 100 scale, 0 is no effect and 100 is complete control): 65
[27]
  Plant response rating, Sedge, Umbrella (0 to 100 scale, 0 is no effect and 100 is complete control): 65
